Patent EP0629400B1 (TAKEDA CHEMICAL INDUSTRIES, LTD., priority 1993, dated 1994)

Key:
[1] = test system: patients with Alzheimer's disease; conditions: 45 mg twice a day (daily dose 90 mg); cited from earlier work
mouse astroglias = conditions: cited from earlier work
[2] = test system: Patients with Alzheimer type dementia; test: Double-blind controlled study, efficacy by Alzheimer's Disease Assessment Scale (ADAS); format: in vivo; conditions: for Score Difference after 6 Months of Administration (mean ± SD): ADAS, n=100, severity increases as the value increases
Method: A double-blind controlled study was conducted in patients with Alzheimer type dementia.
There was no bias in background factors or pre-administration values for efficacy evaluation index among the three groups. Efficacy was evaluated by the Alzheimer's Disease Assessment Scale (ADAS) [American Journal of Psychiatry, Vol. 141, pp. 1356-1364, (1984)], an index for rating the therapeutic effect on Alzheimer's disease recommended by the FDA and all over the world. The results were statistically analyzed to rate the efficacy.
The drugs administered to the patients in the experiment were the tablet preparations of Example 1 and Comparative Examples 1 and 2 above.

Compound: COC1=C(OC)C(=O)C(CCCCCCCCCCO)=C(C)C1=O [idebenone, 6-(10-hydroxydecyl)-2,3-dimethoxy-5-methyl-1,4-benzoquinone]
- efficacy in patients with Alzheimer's disease [1]: proved effective
- nerve growth factor (NGF) secretion (mouse astroglias): induction and promotion of nerve growth factor (NGF) secretion
- symptoms of Alzheimer's disease ([2]; 90 mg 3 times a day, compared with 30 mg 3 times a day and placebo): improvement of statistical significance
- Score Difference after 6 Months of Administration (mean ± SD) ([2]; 30 mg TID oral after meals (tablets of Comparative Example 1)): -5.5 ± 7.2
- Score Difference after 6 Months of Administration (mean ± SD) ([2]; 90 mg TID oral after meals (tablets of Example 1)): -8.0 ± 8.5
